Test results from US20260132129A1 (Genesis Therapeutics, Inc., priority 2022, published 2026).

Molecular target: T1, PI3Kα H1047R (T47D cells) (Homo sapiens, UniProt P42336, H1047R)
T1 construct: endogenous in cells; host or cells: T47D cells
Assay: PI3Kα cellular assay: pAKT HTRF in T47D cells after EGF stimulation
Assay type: cell-based
Settings: for T47D pAKT S473 HTRF IC50 (H1047R): T47D (H1047R) selectivity over SKBR3 (WT): selectivity of T47D (H1047R) over SKBR3 (WT) pAKT IC50; for IC50: T47D cells (PI3Kα H1047R), pAKT S473 HTRF, EGF stimulation
Method in brief: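 pAKT read by HTRF in lysates of EGF-stimulated (20 ng/mL, 10 min) T47D H1047R cells. Before stimulation, serum-starved cells (16 h) received compound for 1 h at 37 °C, dosed from 10,000 nM down to 0.5 nM in 3-fold steps.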

T1 sequence (P42336 whole entry H1047R): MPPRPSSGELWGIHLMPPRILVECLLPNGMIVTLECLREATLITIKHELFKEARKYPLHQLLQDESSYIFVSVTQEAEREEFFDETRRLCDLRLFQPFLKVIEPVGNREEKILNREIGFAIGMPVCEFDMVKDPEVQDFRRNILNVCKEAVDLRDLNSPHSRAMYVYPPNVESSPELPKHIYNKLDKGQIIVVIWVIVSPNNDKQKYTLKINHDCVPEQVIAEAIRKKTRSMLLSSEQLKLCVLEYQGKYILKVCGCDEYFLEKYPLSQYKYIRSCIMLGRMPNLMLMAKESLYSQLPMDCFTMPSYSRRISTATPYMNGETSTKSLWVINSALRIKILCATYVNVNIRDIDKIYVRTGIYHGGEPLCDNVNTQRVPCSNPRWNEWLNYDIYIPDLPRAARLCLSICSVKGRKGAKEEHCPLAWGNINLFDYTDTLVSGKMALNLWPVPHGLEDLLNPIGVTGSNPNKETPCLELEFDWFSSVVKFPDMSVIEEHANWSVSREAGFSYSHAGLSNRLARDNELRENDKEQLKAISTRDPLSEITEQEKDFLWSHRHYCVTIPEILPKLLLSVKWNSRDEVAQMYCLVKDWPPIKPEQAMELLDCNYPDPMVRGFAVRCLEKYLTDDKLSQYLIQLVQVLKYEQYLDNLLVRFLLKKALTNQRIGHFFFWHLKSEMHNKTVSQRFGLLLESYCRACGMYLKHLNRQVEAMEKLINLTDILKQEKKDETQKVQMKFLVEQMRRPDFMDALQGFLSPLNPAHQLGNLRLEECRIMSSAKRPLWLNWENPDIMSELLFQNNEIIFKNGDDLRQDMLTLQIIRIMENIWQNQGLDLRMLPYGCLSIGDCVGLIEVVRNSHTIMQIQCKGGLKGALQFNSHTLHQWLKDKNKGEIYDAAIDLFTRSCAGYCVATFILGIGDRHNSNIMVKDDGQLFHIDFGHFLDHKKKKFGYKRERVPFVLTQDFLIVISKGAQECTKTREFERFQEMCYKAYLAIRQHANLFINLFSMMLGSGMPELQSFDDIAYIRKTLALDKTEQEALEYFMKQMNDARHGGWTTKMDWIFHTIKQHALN
T1 sequence (P27986 whole entry partner): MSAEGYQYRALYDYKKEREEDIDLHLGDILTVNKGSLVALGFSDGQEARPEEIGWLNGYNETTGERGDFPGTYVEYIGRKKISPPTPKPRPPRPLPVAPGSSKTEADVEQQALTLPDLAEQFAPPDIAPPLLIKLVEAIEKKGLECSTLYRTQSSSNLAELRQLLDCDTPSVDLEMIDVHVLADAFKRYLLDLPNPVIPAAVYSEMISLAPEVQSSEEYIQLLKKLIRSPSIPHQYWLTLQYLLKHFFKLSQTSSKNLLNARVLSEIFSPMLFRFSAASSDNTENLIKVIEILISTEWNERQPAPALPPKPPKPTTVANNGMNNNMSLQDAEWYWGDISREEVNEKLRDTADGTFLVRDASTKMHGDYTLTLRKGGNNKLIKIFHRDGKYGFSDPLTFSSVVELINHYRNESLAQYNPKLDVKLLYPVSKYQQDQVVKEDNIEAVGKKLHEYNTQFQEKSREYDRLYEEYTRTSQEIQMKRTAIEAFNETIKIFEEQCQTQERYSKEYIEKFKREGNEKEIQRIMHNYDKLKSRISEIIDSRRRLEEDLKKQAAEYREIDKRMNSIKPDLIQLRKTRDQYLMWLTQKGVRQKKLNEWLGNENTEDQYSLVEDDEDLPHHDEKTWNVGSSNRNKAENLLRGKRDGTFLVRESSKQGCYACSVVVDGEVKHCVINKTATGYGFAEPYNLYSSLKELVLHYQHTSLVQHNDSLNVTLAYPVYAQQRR

Row | SMILES | T47D pAKT S473 HTRF IC50 (H1047R): T47D (H1047R) selectivity over SKBR3 (WT) | IC50 [nM]
1 | Cc1cc([C@H](C)Nc2ccccc2C(=O)O)c2nc(N3C[C@H]4C[C@@H](C5CCN(S(=O)(=O)N(C)C)CC5)C[C@H]4C3)cc(=O)n2c1 [Compound 935] | C (C denotes ≤5-fold) | 
2 | C=CC(=O)Nc1cc(C(C)Nc2ccccc2C(=O)O)c2nc(N3Cc4ccccc4C3)cc(=O)n2c1 (stereo not shown) [Compound 939] | C (C denotes ≤5-fold) | > 2000
3 | Cc1cc([C@@H](C)Nc2cccc(CO)c2C(=O)O)c2nc(-c3ccc4c(c3)c(C)nn4C)cc(=O)n2c1 [Compound 940] | C (C denotes ≤5-fold) | > 2000
4 | Cc1cc([C@H](C)Nc2cccc(CO)c2C(=O)O)c2nc(-c3ccc4c(c3)c(C)nn4C)cc(=O)n2c1 [Compound 941] | C (C denotes ≤5-fold) | > 2000
5 | Cc1cc([C@H](C)Nc2cccnc2-c2ccnnc2)c2nc(N3Cc4ccccc4C3)cc(=O)n2c1 [Compound 943] | A (A denotes >20-fold) | 100 to 500
6 | Cc1cc(C(C)Nc2ccccc2S(N)(=O)=O)c2nc(-c3ccc4c(c3)c(C)nn4C3CC3)c(C)c(=O)n2c1 (stereo not shown) [Compound 944] | A (A denotes >20-fold) | 100 to 500
7 | Cc1cc([C@@H](C)Nc2ccccc2C(=O)O)c2nc(-c3ccc4[nH]c(=O)sc4c3)c(C)c(=O)n2c1 [Compound 945] | A (A denotes >20-fold) | < 100
8 | Cc1cc([C@H](C)Nc2ccccc2C(=O)O)c2nc(-c3ccc4[nH]c(=O)sc4c3)c(C)c(=O)n2c1 [Compound 946] | B (B denotes 20-fold≥value>5-fold) | 500 to 2000
9 | Cc1cc([C@H](C)Nc2ccccc2C(=O)O)c2nc(-c3ccc(F)c(C#N)c3)c(C)c(=O)n2c1 [Compound 948] | B (B denotes 20-fold≥value>5-fold) | 500 to 2000
10 | Cc1cc([C@H](C)Nc2ccccc2C(=O)O)c2nc(-c3cccnc3)c(C)c(=O)n2c1 [Compound 950] | C (C denotes ≤5-fold) | > 2000
11 | Cc1cc([C@H](C)Nc2ccccc2C(=O)O)c2nc(-c3ccnc(C4CC4)c3)c(C)c(=O)n2c1 [Compound 954] | B (B denotes 20-fold≥value>5-fold) | 500 to 2000
12 | Cc1cc([C@@H](C)Nc2ccccc2C(=O)C(F)(F)F)c2nc(N(C)Cc3ccccc3)c(C)c(=O)n2c1 [Compound 957] | C (C denotes ≤5-fold) | > 2000
13 | Cc1cc([C@H](C)Nc2ccccc2C(=O)C(F)(F)F)c2nc(N3Cc4ccccc4C3)c(C)c(=O)n2c1 [Compound 958] | C (C denotes ≤5-fold) | > 2000
14 | Cc1cc([C@@H](C)Nc2ccccc2S(N)(=O)=O)c2nc(-c3ccc4c(c3)c(C)nn4C3CC3)c(C)c(=O)n2c1 [Compound 961] | A (A denotes >20-fold) | 100 to 500
15 | Cc1cc([C@H](C)Nc2ccccc2S(N)(=O)=O)c2nc(-c3ccc4c(c3)c(C)nn4C3CC3)c(C)c(=O)n2c1 [Compound 962] | C (C denotes ≤5-fold) | > 2000
16 | Cc1cc([C@@H](C)Nc2ccccc2C(=O)O)c2nc(-c3cccc(C(F)F)c3)c(C)c(=O)n2c1 [Compound 972, (R)-2-((1-(2-(3-(difluoromethyl)phenyl)-3,7-dimethyl-4-oxo-4H-pyrido[1,2-a]pyrimidin-9-yl)ethyl)amino)benzoic acid] | A (A denotes >20-fold) | < 100
17 | Cc1cc([C@H](C)Nc2ccccc2C(=O)O)c2nc(-c3ccc(C#N)nc3)c(C)c(=O)n2c1 [Compound 976] | C (C denotes ≤5-fold) | > 2000
18 | Cc1cc(C(C)Nc2cccc(C#N)c2C(=O)O)c2nc(-c3ccc4c(c3)c(C)nn4C)cc(=O)n2c1 (stereo not shown) [Compound 981] | C (C denotes ≤5-fold) | > 2000
19 | Cc1cc([C@@H](C)Nc2ccccc2C(=O)O)c2nc(-c3ccc4c(C)cn(C)c4c3)c(C)c(=O)n2c1 [Compound 984] | A (A denotes >20-fold) | < 100
20 | Cc1cc([C@H](C)Nc2ccccc2C(=O)O)c2nc(-c3ccc4c(C)cn(C)c4c3)c(C)c(=O)n2c1 [Compound 985] | C (C denotes ≤5-fold) | > 2000

Row | SMILES | T47D pAKT S473 HTRF IC50 (H1047R): T47D (H1047R) selectivity over SKBR3 (WT) | IC50 [nM]
21 | Cc1cc([C@H](C)Nc2ccccc2S(N)(=O)=O)c2nc(-c3cnc4c(c3)c(C)nn4C)c(C)c(=O)n2c1 [Compound 988] | C (C denotes ≤5-fold) | > 2000
22 | Cc1cc(C(C)Nc2ccccc2S(N)(=O)=O)c2nc(-c3cnc4c(c3)c(C)nn4C3CC3)c(C)c(=O)n2c1 (stereo not shown) [Compound 990] | A (A denotes >20-fold) | 100 to 500
23 | Cc1cc([C@@H](C)Nc2ccccc2S(N)(=O)=O)c2nc(-c3cnc4c(c3)c(C)nn4C3CC3)c(C)c(=O)n2c1 [Compound 991] | A (A denotes >20-fold) | 100 to 500
24 | Cc1cc([C@@H](C)Nc2ccccc2S(N)(=O)=O)c2nc(-c3ccc4c(c3)c(C)cn4C3CC3)c(C)c(=O)n2c1 [Compound 995] | C (C denotes ≤5-fold) | > 2000
25 | Cc1cc(C(C)Nc2cccc3c2S(=O)(=O)NC3=O)c2nc(N3Cc4ccccc4C3)cc(=O)n2c1 (stereo not shown) [Compound 998] | C (C denotes ≤5-fold) | 
26 | Cc1cc([C@@H](C)Nc2ccccc2C(=O)O)c2nc(-c3ccncc3)c(C)c(=O)n2c1 [Compound 1004] | C (C denotes ≤5-fold) | > 2000
27 | Cc1cc([C@H](C)Nc2ccccc2C(=O)O)c2nc(-c3ccc4c(c3)c(C)cn4C3CCOCC3)c(C)c(=O)n2c1 [Compound 1009] | C (C denotes ≤5-fold) | 
28 | Cc1cc([C@@H](C)Nc2cc[nH]c2-c2ccnnc2)c2nc(N3Cc4ccccc4C3)c(C)c(=O)n2c1 [Compound 1014] | C (C denotes ≤5-fold) | 
29 | CCc1c(-c2ccc3c(c2)c(C)cn3C)nc2c(C(C)Nc3ccccc3C(=O)O)cc(C)cn2c1=O (stereo not shown) [Compound 1019] | A (A denotes >20-fold) | 100 to 500
30 | Cc1cc([C@@H](C)Nc2ccccc2C(=O)O)c2nc(-c3ccc(F)c(C)c3)c(C)c(=O)n2c1 [Compound 1022] | A (A denotes >20-fold) | < 100
31 | Cc1cc(C(C)Nc2ccccc2C(=O)O)c2nc(-c3ccc4c(c3)c(C#N)nn4C3CC3)c(C)c(=O)n2c1 (stereo not shown) [Compound 1026] | A (A denotes >20-fold) | 100 to 500
32 | Cc1cc([C@@H](C)Nc2ccccc2S(N)(=O)=O)c2nc(-c3ccc4c(C)nn(C5CC5)c4c3)c(C)c(=O)n2c1 [Compound 1027] | A (A denotes >20-fold) | 100 to 500
33 | Cc1cc([C@H](C)Nc2ccccc2S(N)(=O)=O)c2nc(-c3ccc4c(C)nn(C5CC5)c4c3)c(C)c(=O)n2c1 [Compound 1028] | C (C denotes ≤5-fold) | 
34 | Cc1cc([C@H](C)Nc2ccccc2S(N)(=O)=O)c2nc(-c3ccc(F)c(C#N)c3)c(C)c(=O)n2c1 [Compound 1032] | C (C denotes ≤5-fold) | > 2000
35 | Cc1cc(C(C)Nc2ccccc2S(N)(=O)=O)c2nc(-c3cccc(C#N)c3)c(C)c(=O)n2c1 (stereo not shown) [Compound 1033] | A (A denotes >20-fold) | 100 to 500
36 | Cc1cc([C@@H](C)Nc2ccccc2S(N)(=O)=O)c2nc(-c3cccc(C#N)c3)c(C)c(=O)n2c1 [Compound 1034] | A (A denotes >20-fold) | < 100
37 | Cc1cc([C@H](C)Nc2ccccc2S(N)(=O)=O)c2nc(-c3cccc(C#N)c3)c(C)c(=O)n2c1 [Compound 1035] | C (C denotes ≤5-fold) | > 2000
38 | C[C@@H]1C[C@H](C)CN(c2cc(=O)n3cc(C(F)(F)F)cc([C@@H](C)Nc4ccccc4C(=O)O)c3n2)C1 [Compound 1036] | A (A denotes >20-fold) | < 100
39 | C=CC(=O)Nc1ccc(C(=O)O)c(NC(C)c2cc(C)cn3c(=O)c(C)c(N4Cc5ccccc5C4)nc23)c1 (stereo not shown) [Compound 1039] | C (C denotes ≤5-fold) | > 2000
